This is an account of results in patent publication US20070231296A1, “Method of Combating Fruit Flies” (priority 2004, published 2007).

One data set has as its system Bactrocera tryoni. Put plainly: Large field cage trial with a paper mâché block containing fipronil plus Cue-lure. It counts as in vivo. To be noted: field cage 4×4×2.5 m, single paper mâché block with 20 milligrams of fipronil plus Cue-lure per cage. The source says:
In a large field cage (4×4×2.5 m) trial, a single block of paper mâché containing 20 milligrams of fipronil plus Cue-lure was used per cage.
After 2 days of exposure, over 90% mortality of male and female Bactrocera tryoni was achieved, after 3 days even over 95% mortality of males and females.
Dead females were collected from the floor of the cage and dissected.

The subject of the next data set is fruit flies. Put plainly: Contact of male fruit flies with AMULET parapheromone stations and transfer to females. Type of data set: in vivo. The note with it: AMULET station, 20 mg fipronil per station; depending on length of contact. Here is the method: AMULET™ parapheromone stations use fipronil at a very low concentration (20 mg per station) that has no repulsion to male flies landing on the device allowing them to freely imbibe from its surface and walk over it for long periods. Female fruit flies of the same species are not attracted by the pheromone and do no show any interest in the stations.
Through this contact they contaminate the integument of the female that subsequently dies the following day.

Each structure is given as a SMILES string.

With `N#Cc1nn(-c2c(Cl)cc(C(F)(F)F)cc2Cl)c(N)c1[S+]([O-])C(F)(F)F` (stereo not drawn) [fipronil], the “mortality of male and female Bactrocera tryoni” value in the data set on Bactrocera tryoni (after 2 days of exposure) is reported as “over 90%”. For the same molecule, in the data set with Bactrocera tryoni (after 3 days), the “mortality of males and females” value was “over 95%”. Also, in the data set with fruit flies, the “time after contact until male fruit flies die” value lay in the range of 3 to 48 h.
